Patent publication US7344730B1, “Soil granulates with controlled active ingredient release (cr soil granulates)” (BASF SE, priority 1998, dated 2008)
Read-outs that look alike come from different tables or passages of the source.

How the values were obtained:
[1] = Granule elution apparatus: release of active ingredient from CR granules into about 4000 ml water in 24 h; type: physicochemical; settings: for active ingredient detected in the collected liquid: Example 3 granules (PVA+PVP coating), 30 g of granules, 3980 g of water in 24 hours; for Release rate in 24 h at 40° C., 4000 ml: coating percentage 4%
Procedure: The plant serves to determine the delayed release of active ingredients or salts from controlled release (CR) formulations. A frit on which the granules to be tested are placed is located in a cylindrical vessel at the lower edge. Underneath the frit there is an S-shaped drain which causes liquid to drain from the cylinder only when it is 80% full. Water (if appropriate together with wetter) is pumped through the CR formulations in a cylindrical feed container (approx. volume 100 ml) by means of a hose pump in such a way that the feed material is surrounded completely by water. The percolating water is collected in receiving vessels. An automatic switch causes the receiving vessels to be changed in order to determine the release of active ingredients over time. […] Unless elution temperatures are specified, a bath temperature of 30° C. was set.
The elution plant operates 24 hours a day in conjunction with the program control. One elution takes 24 hours, and during this time approx. 4000 ml of fluid are pumped through the feed material and collected in receiving vessels. The active ingredient content in the eluate is determined by means of HPLC or GC. Whether release is uniform can be checked with reference to the feed material. The cumulative value provides a measure for assessing granule permeability.
The release rate of the active ingredients was determined in the above-described elution apparatus. To this end, 30 g of the carrier granules were weighed into a trapped container equipped with a frit. In 24 hours, an amount of 3980 g of water was pumped through the container and collected. 124 mg of fenpropimorph and 19 mg of epoxiconazole were detected in the collected liquid.

[2] = type: in vivo, winter wheat; settings: for epoxiconazole detected per kg of biomass: winter wheat, in vivo
Procedure: This product was applied together with cereal seed (winter wheat). On average, approx. 3 fungicidal active ingredient pellets were deposited subterraneously per seed kernel. Epoxiconazole was detected in the growing cereal plants two and six months after application. Two months after sowing, 0.038 mg were detected per kg of biomass, and six months after application 0.022 mg were still detected per kg of biomass.

Erysiphe-graminis = experiment: Field experiments on spring wheat Star: disease level Erysiphe graminis; type: in vivo; settings: soil application in CR granules combined with strobilurin, Table 12 series
From the text: Due to the rapid release of active ingredient, the long-term action of this sample was insufficient, so that only a minor effect was discernible in comparison with the untreated sample.
The carriers employed were urea and Rasenfloranid granules.

CC(Cc1ccc(C(C)(C)C)cc1)CN1C[C@@H](C)O[C@@H](C)C1 (mixture of isomers) [Comp. 1, (±)-cis-4-[3-(4-tert-butylphenyl)-2-methylpropyl]-2,6-dimethyl-morpoline]
active ingredient detected in the collected liquid [1]: 124 mg

Fc1ccc([C@]2(Cn3cncn3)O[C@H]2c2ccccc2Cl)cc1 (racemic) [Comp. 6, (2RS,3SR)-1-[3-(2-chlorophenyl)-2,3-epoxy-2-(4-fluorophenyl)-propyl]-1H-1,2,4-triazole]
active ingredient detected in the collected liquid [1]: 19 mg
Release rate in 24 h at 40° C., 4000 ml ([1]; filler (starch C-Pur) 0%): 2.70%
Release rate in 24 h at 40° C., 4000 ml ([1]; filler (starch C-Pur) 10%): 3.30%
Release rate in 24 h at 40° C., 4000 ml ([1]; filler (starch C-Pur) 20%): 7.15%
controlled release of the active ingredient in the soil, duration ([2]; PVA+PVP coating, Example 3): at least 6 months
epoxiconazole detected per kg of biomass ([2]; 2 months): 0.038 mg per kg of biomass
epoxiconazole detected per kg of biomass ([2]; 6 months): 0.022 mg per kg of biomass

CC(=O)Oc1ccccc1C(=O)O [Comp. 7, acetylsalicylic acid]
activity-enhancing effect in combination (words) (Erysiphe-graminis; listed as Compound 7): same activity-enhancing effects as Bion®

CC(=O)Oc1ccccc1C(=O)O [acetylsalicylic acid]
activity-enhancing effect in combination (words) (Erysiphe-graminis): activity-enhancing effects
